The values below come from patent US5298509A, “Octahydronaphthoquinolizines, and methods of making and using thereof” (priority 1992, dated 1994).

Series [1] deals with drug-resistant patients. The settings on record: human, in vivo; cited from earlier work.
Series [2] concerns dopamine D2 receptor. The settings on record: cited from earlier work.
For series [3], the system named is sham-feeding rat. Description: Microstructural analysis of licking/ingestive behavior in the sham-feeding rat. It is filed as in vivo. The settings on record: SKF 5 mg/kg, BMY 4 mg/kg, HAL 0.1 mg/kg, i.p. The text has this:
Motoric components of the ingestive behavior may be differentiated from the "rewarding", sensory components by the use of microstructural analysis, a computer-controlled device which records the time at which each animal licks, to the nearest fractional millisecond. Analysis of licking and ingestive behavior in bursts is monitored through a fixed time test such that sigma agents may influence ingestive behavior either through the motor output systems or through nigrostriatal dopamine systems. The role for sigma sites in motor output systems include those muscles which are associated with licking, biting, and swallowing.
This consists of the use of a computer-controlled device which records the time at which each animal licks, to the nearest fractional millisecond. This then allows analysis of licking and ingestive behavior in bursts through a 30-minute test.
Using this behavioral assay system, with peripheral administration of the various selective drugs, rats (N=6) received 20% sucrose during a 30-min test, such that there was no effect of the sigma agents (+)-SKF 10,047 (5 mg/kg, i.p.; SKF) or BMY 14802 (4 mg/kg, i.p.; BMY) depending upon the volume of the sucrose solution which was ingested. […] These changes are attributed to a shift in the mean of the distribution histogram of interlick intervals. […] The shift in interlick interval distribution is expected to arise from occupancy of hindbrain sigma sites, possibly in the reticular formation, which are involved in definition of the lick rate in the rat.

In series [4] the test system is sham-feeding rat. Briefly: Sucrose ingestion (sham intake) in the sham-feeding rat. The format is in vivo. The settings on record: 20% sucrose, 30-min test, N=6. The text has this:
As a non-limiting example, distinguishing between sigma receptor modulation and dopamine modulation may be accomplished using a D2 distinguishing assay, such as a behavioral assay system which discriminates the effects of dopamine D2 antagonists from sigma modulators or agents. A non-limiting example of a D2 /sigma distinguishing assay system involves quantification of ingestion of sucrose in a sham-feeding rat, where dopamine plays a critical role in the mediation of this behavior. See Schneider, L. H. et al. Eur. J. Pharmacol. 186:61-70 (1990) which is entirely incorporated herein by reference. […] The principal factor which compels the animal to maintain ingestion is the sweet taste of the sucrose solution; the involvement of the ascending mesolimbic dopamine system in this effect appears to be manifested as a modulation of the hedonic potency of the orosensory event (sweet taste). […] Neurosci. Abstr. 16:1028 (1990) which references are incorporated entirely herein by reference.
Differentiation of sigma and dopamine activities are provided by a behavioral assay system which effectively discriminates the effects of dopamine D-2 antagonists from sigma agents. The assay system involves quantification of ingestion of sucrose in the sham-feeding rat.

The test system of series [5] is sigma receptor. The settings on record: cited from earlier work.

Entries after “also recorded” stand apart in the source; their conditions may differ. Where two headings read alike, the source gives them in different places.

For `CN1CCN(C2=Nc3cc(Cl)ccc3Nc3ccccc32)CC1` [clozapine], in series [1], the “agranulocytosis / side effects (in words)” value is “irreversible, potentially fatal agranulocytosis in a minority of patients; also recorded: less motor side effects; also recorded: severe and fatal agranulocytosis”.
On to `O=C(CCCN1CCC(O)(c2ccc(Cl)cc2)CC1)c1ccc(F)cc1` [haloperidol], for which the “activity at dopamine D2 receptor (in words)” value in series [2] is reported as “high affinity”. Moreover, the “mean lick cluster size (in words)” value in series [3] is recorded as “not SKF or HAL”. In addition, the “interlick intervals (in words)” value in series [3] (range 0-250 msec) is given as “not SKF or HAL”. Besides, in series [4] ((+)-SKF 10,047 5 mg/kg i.p., BMY 14802 4 mg/kg i.p., haloperidol 0.1 mg/kg i.p.), the “effect on volume of sucrose solution ingested (in words)” value is reported as “highly significant reduction”. In addition, the “sham intake of the sucrose solution” value in series [4] (haloperidol 0.1 mg/kg, i.p., vs 33.7±2.7 ml, p<0.001) is 15 ± 2.7 mL. For the same compound, the “affinity for sigma receptors (in words)” value was “high affinity” in series [5], “labeled with high affinity” in series [5] (listed as (^3 H)-haloperidol) and “very high affinity” in series [5] (listed as Haloperidol).
